In paper PMC8481833, “Kinetic Characterization and Inhibitor Screening of Pyruvate Kinase I From Babesia microti” (Frontiers in Microbiology, 2021):
Where “and” joins values, the source holds several entries; their conditions need not be identical. Equal values may be shown once. Entries after “also recorded” stand apart in the source; their conditions may differ. Read-outs that look alike come from different tables or passages of the source.

Experiments:
[1] = biological target: rBmLDH (Babesia microti, UniProt I7J7V6); assay: biochemical; type: biochemical
Chain of rBmLDH (I7J7V6 1-332): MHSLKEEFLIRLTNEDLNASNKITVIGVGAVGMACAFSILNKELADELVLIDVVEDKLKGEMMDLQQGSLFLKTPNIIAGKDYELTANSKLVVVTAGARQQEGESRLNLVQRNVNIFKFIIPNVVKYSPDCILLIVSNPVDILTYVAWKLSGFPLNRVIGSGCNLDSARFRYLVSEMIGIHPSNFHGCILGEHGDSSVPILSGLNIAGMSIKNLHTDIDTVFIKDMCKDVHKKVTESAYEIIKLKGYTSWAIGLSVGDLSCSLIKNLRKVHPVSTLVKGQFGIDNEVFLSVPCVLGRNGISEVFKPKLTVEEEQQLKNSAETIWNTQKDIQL

[2] = biological target: T1, rBmPYKI (Babesia microti, UniProt A0A1N6LXR4); assay: biochemical; type: biochemical
[3] = test system: PYK from P. falciparum; details: cited from earlier work
[4] = biological target: T1, rBmPYKI; assay: Enzyme kinetics of rBmPYKI on substrates PEP and ADP; type: biochemical; details: substrate of rBmPYKI
Experimental: To determine the enzymatic activity of purified rBmPYKI, the GST tag was removed from the recombinant protein; and the indirect coupled lactate dehydrogenase (LDH) assay was applied. Recombinant B. microti LDH (rBmLDH) protein, the only one isoform in B. microti, was expressed and purified according to previously published protocol ([Yu et al., 2019]). The standard enzyme kinetic assay was conducted by monitoring the decrease in NADH at a wavelength of 340 nm using a microplate reader (BioTek, Winooski, VT, United States). One unit of the PYK activity here was defined as 1 μmol of NADH oxidized per minute at 37°C. The samples were continuously measured at 2, 7, 12, 17, 22, and 27 min. To determine the effects of pH and the concentration of Mg^2+ and K^+ on rBmPYKI, the assay was performed in the pH range of 5.5–8.5, and the Mg^2+ and K^+ concentrations ranged from 0 to 200 mM (0, 25, 50, 75, 100, 125, 150, 175, and 200 mM). The standard assay mixture (200 μl) contained 50 mM of Tris-HCl (pH 7.0), 50 mM of MgCl2, 20 mM of KCl, 0.5 mM of NADH (MilliporeSigma), 3 mM of PEP (MilliporeSigma), 1 mM of ADP (MilliporeSigma), 100 ng of rBmLDH (20 U), and 100 ng of rBmPYKI. The initial velocity for the rate of […] of NADH in the first 5 min was calculated, and the relative percentage activity was determined. The kinetic parameters for PEP (at 0.5, 1, 2, 3, 4, and 5 mM) under saturating ADP conditions (3 mM) were determined. The Michaelis–Menten constant (Km) for ADP under 7 mM of PEP (saturation) was determined at 0.05, 0.1, 0.2, 0.4, 0.6, 0.8, 1.0, 1.5, and 2.0 mM.

[5] = test system: PYK from T. gondii; details: cited from earlier work
[6] = test system: corresponding enzymes from mammals; details: cited from earlier work
[7] = Cytotoxicity assay, Cell Counting Kit-8, Vero cells; details: African green monkey
[8] = test system: B. microti; assay: Growth inhibition of Babesia microti by in vitro culture; type: cell-based; details: for IC50: read-out: IC50 B. microti
Experimental: Infected mouse blood was collected and centrifuged at 845 × g for 5 min, and the infected mouse RBCs was isolated. The RBCs infected by B. microti were diluted to 5% with uninfected mouse and human RBCs (10:1). […] Drug-free wells were set up as blank control. All treatments were carried out in triplicate. After 72 h of incubation, parasitemia was examined by Giemsa staining under a microscope.

[9] = Cytotoxicity assay, Cell Counting Kit-8, HFF cells; details: human
[10] = test system: B. microti; assay: Rescue assay of tannic acid (pyruvate or ATP added); type: cell-based, Babesia microti; details: for effect of addition of ATP on the inhibitory effect: 2 mM ATP; for effect of addition of ATP on the inhibitory effect / effect of addition of pyruvate on the inhibitory effect / inhibition of B. microti as compared with DMSO: tannic acid 1 μM, DA about 10 μM; for effect of addition of pyruvate on the inhibitory effect: 2 mM pyruvic acid
Experimental: MilliporeSigma) was used as the positive control, and DMSO was used as the negative control because tannic acid was diluted in DMSO. The group only containing medium without any treatment was used as the blank control. Each test was performed in triplicate.

[11] = test system: HFF cells
[12] = test system: Vero cells
[13] = in vitro; details: human
[14] = in vitro; details: African green monkey
[15] = test system: trypanosomes; set-up: method as in Worku et al., 2015; details: net ATP depletion by inhibiting PYK; ref Worku et al., 2015; cited from earlier work
[16] = substrate: Nc1ncnc2c1ncn2[C@@H]1O[C@H](COP(=O)(O)OP(=O)(O)O)[C@@H](O)[C@H]1O; assay: Indirect coupled LDH assay following NADH decrease at 340 nm, pH 7.0, 37 °C, 50 mM MgCl2, 20 mM KCl, ADP varied 0.05-2.0 mM at saturating 7 mM PEP, no FBP.; type: biochemical
Experimental: (§1) To determine the enzymatic activity of purified rBmPYKI, the GST tag was removed from the recombinant protein; and the indirect coupled lactate dehydrogenase (LDH) assay was applied. Recombinant B. microti LDH (rBmLDH) protein, the only one isoform in B. microti, was expressed and purified according to previously published protocol ([Yu et al., 2019]). The standard enzyme kinetic assay was conducted by monitoring the decrease in NADH at a wavelength of 340 nm using a microplate reader (BioTek, Winooski, VT, United States). One unit of the PYK activity here was defined as 1 μmol of NADH oxidized per minute at 37°C. The samples were continuously measured at 2, 7, 12, 17, 22, and 27 min. […] The initial velocity for the rate of […] of NADH in the first 5 min was calculated, and the relative percentage activity was determined. The kinetic parameters for PEP (at 0.5, 1, 2, 3, 4, and 5 mM) under saturating ADP conditions (3 mM) were determined. […]
Statistical analysis was conducted with GraphPad Prism 7.0 (GraphPad Software, La Jolla, CA, United States). Statistical significance was evaluated by one-way ANOVA; and all data were presented as the mean ± standard deviation (SD) from at least three independent experiments performed in duplicate. […]

[17] = substrate: C=C(OP(=O)(O)O)C(=O)O; assay: Enzyme kinetics of rBmPYKI on substrates PEP and ADP; type: biochemical, Babesia microti; details: other: substrate of rBmPYKI; other substrate saturating; pH 7.0; 37.0 °C
Experimental: as §1, with “min. To determine the effects of pH and the concentration of Mg^2+ and K^+ on rBmPYKI, the assay was performed in the pH range of 5.5–8.5, and the Mg^2+ and K^+ concentrations ranged from 0 to 200 mM (0, 25, 50, 75, 100, 125, 150, 175, and 200 mM).” for “min.”

[18] = in vitro culture, 72 h, parasitemia by Giemsa staining

Molecule: O=c1cc(-c2ccccc2)oc2ccccc12 [Flavone]
- effect on rBmLDH / LDH reaction activity [1]: no effect
- IC50 ([1]; read-out: IC50 rBmLDH): > 1950 µM
- effect on the activity of rBmPYKI [2]: no effect
- IC50 ([2]; read-out: IC50 rBmPYKI): > 1950 µM

Molecule: Nc1ncnc2c1ncn2[C@@H]1O[C@H](COP(=O)(O)OP(=O)(O)O)[C@@H](O)[C@H]1O [ADP]
- Km [3]: 126 µM
- Kcat [4]: 21.8 S^–1
- KcatKM [4]: 5.62 × 10^4 S^–1⋅M^–1
- Vmax [4]: 242 ± 16 U/mg
- Km ([4]; other substrate saturating): 388 ± 87 µM
- Km [5]: 180 µM
- Km [6]: 350 µM

Molecule: CC(C)=CCC1=C(O)C(=O)c2ccccc2C1=O [Lapachol]
- IC50 [1]: 721 µM
- effect on rBmLDH / LDH reaction activity [1]: no effect
- effect on the activity of rBmPYKI [2]: no effect

Molecule: O=c1cc(-c2ccccc2)oc2ccc(O)cc12 [6-Hydroxyflavone]
- effect on rBmLDH / LDH reaction activity [1]: obvious inhibitory effect
- IC50 ([1]; read-out: IC50 rBmLDH): 828 µM
- IC50 ([2]; read-out: IC50 rBmPYKI): 390 µM

Molecule: CC(C)=CC[C@@H](O)C1=CC(=O)c2c(O)ccc(O)c2C1=O [Shikonin]
- effect on rBmLDH / LDH reaction activity [1]: did not affect
- IC50 ([1]; read-out: IC50 rBmLDH): > 1950 µM
- CC50 [7]: 2.37 ± 0.26 µM
- hemolysis of RBCs ([8]; 100 μM, infected RBC culture): Slight hemolysis
- IC50 ([8]; Babesia microti, 72 h): 1.73 ± 0.69 µM
- inhibition at 20 µM ([8]; Babesia microti, 72 h, read-out: inhibition rate of B. microti growth): 80%
- CC50 [9]: 0.63 ± 0.4 µM
- IC50 [2]: 187 µM
- effect on the activity of rBmPYKI [2]: significantly inhibit

Molecule: CC(=O)NCC(=O)O.CC(=O)NCC(=O)O.N=C(N)c1ccc(N=NNc2ccc(C(=N)N)cc2)cc1 [DA, diminazene aceturate]
- effect of addition of ATP on the inhibitory effect [10]: did not affect
- effect of addition of pyruvate on the inhibitory effect [10]: no effect
- inhibition of B. microti as compared with DMSO [10]: significantly inhibit

Molecule: Tannic acid
- CC50 [11]: 36.5 ± 4.75 µM
- IC50 ([1]; read-out: IC50 rBmLDH): 23.6 µM
- inhibition of B. microti growth ([10]; 1 μM, concentration used in rescue assay): 70%
- effect of addition of ATP on the inhibitory effect [10]: did not affect
- effect of addition of pyruvate on the inhibitory effect [10]: rescue
- microscopy observation of inhibited parasites ([10]; Giemsa staining): mostly located outside RBCs
- inhibition of B. microti as compared with DMSO [10]: significantly inhibit
- CC50 [12]: 53 ± 2.8 µM
- inhibition rate of B. microti growth ([8]; 20 μM, 72 h): 80%
- IC50 [8, 18]: 0.77 µM
- effect on the activity of rBmPYKI [2]: significantly inhibit; also recorded: significantly reduce
- inhibition of the activity of rBmPYKI ([2]; 3 µM): more than 90%
- IC50 ([2]; read-out: IC50 rBmPYKI): 0.5 µM and 0.49 µM

Molecule: CN(CCOc1ccc(CC2SC(=O)NC2=O)cc1)c1ccccn1 (centres unmarked) [Rosiglitazone]
- effect on the activity of rBmPYKI [2]: significantly inhibit; also recorded: significantly reduce
- IC50 ([2]; read-out: IC50 rBmPYKI): 6.89 µM

Molecule: OC[C@H]1O[C@@H](Oc2cc(O)cc(/C=C/c3ccc(O)cc3)c2)[C@H](O)[C@@H](O)[C@@H]1O [Polydatin]
- IC50 [1]: 142 µM
- effect on rBmLDH / LDH reaction activity [1]: obvious inhibitory effect
- IC50 [2]: 92.9 µM

Molecule: C=C(OP(=O)(O)O)C(=O)O [PEP, phosphoenolpyruvate]
- Km [3]: 190 µM
- Km [5]: 750 µM

Molecule: O=c1cc(-c2ccc(O)cc2)oc2cc(O)cc(O)c12 [Apigenin]
- CC50 [13]: 33 ± 1.18 µM
- effect on rBmLDH / LDH reaction activity [1]: did not affect
- IC50 ([1]; read-out: IC50 rBmLDH): > 1950 µM
- IC50 ([8]; Babesia microti, in vitro culture, 72 h, parasitemia by Giemsa staining): 2.1 ± 1.16 µM
- CC50 [14]: 58.6 ± 2.97 µM
- IC50 [2]: 70 µM
- effect on the activity of rBmPYKI [2]: significantly inhibit

Molecule: Cc1ccc(C(=O)Nc2ccc(S(=O)(=O)O)c3cc(S(=O)(=O)O)cc(S(=O)(=O)O)c23)cc1NC(=O)c1cccc(NC(=O)Nc2cccc(C(=O)Nc3cc(C(=O)Nc4ccc(S(=O)(=O)O)c5cc(S(=O)(=O)O)cc(S(=O)(=O)O)c45)ccc3C)c2)c1 [Suramin]
- effect on rBmLDH / LDH reaction activity [1]: obvious inhibitory effect
- IC50 ([1]; read-out: IC50 rBmLDH): 44.2 µM
- IC50 ([2]; read-out: IC50 rBmPYKI): 125 µM

Molecule: CC1=C(CSC(=S)N2CCCCC2)C(=O)c2ccccc2C1=O [PKM2 inhibitor]
- CC50 [11]: 18.6 ± 2.46 µM
- effect on rBmLDH / LDH reaction activity [1]: did not affect
- IC50 ([1]; read-out: IC50 rBmLDH): > 1950 µM
- CC50 [12]: 39.2 ± 5.05 µM
- inhibition rate of B. microti growth ([8]; 50 μM, 72 h): 80%
- IC50 [8, 18]: 1.15 ± 0.11 µM
- effect on the activity of rBmPYKI [2]: significantly inhibit
- IC50 ([2]; read-out: IC50 rBmPYKI): 23 µM

Molecule: CCc1ccc(CCOc2ccc(CC3SC(=O)NC3=O)cc2)nc1 (centres unmarked) [Pioglitazone]
- effect on rBmLDH / LDH reaction activity [1]: did not affect
- IC50 ([1]; read-out: IC50 rBmLDH): > 1950 µM
- effect on the growth of B. microti ([8]; in vitro culture, 72 h): no significant effect
- IC50 [2]: 44 µM
- effect on the activity of rBmPYKI [2]: significantly inhibit

Molecule: COc1c(O)cc(O)c2c(=O)cc(-c3ccccc3)oc12 [Wogonin]
- IC50 [1]: 143 µM
- effect on rBmLDH / LDH reaction activity [1]: obvious inhibitory effect
- IC50 [2]: 185 µM

Molecule: CCOC(=O)C(C)=O [Ethyl pyruvate]
- time of exposure to kill trypanosomes [15]: ≤ 3 h

B1: rBmPYKI (Babesia microti strain RI) (protein)
chain: MNRIIKAVPDDEISKKLTKIVCTIGPASANVDKIVAMIKSGMNVCRFNFSHGTHETHYETMKLVKEAMKQVPGKHIALMIDTKGPEIRTGKLAQGDYIQLTAGQTVKITSDQSVLCTNEIISITYEHLTSSVKPGNIILMADGTISFKVISVEKDYVVGEVMNSARLSNRKNVNLPGVKVNIPVIGEKDKKDILEFGVAHNMDYIAVSFVQSANDILSVKKLIGHNSNLKIISKIENVEGLINFDEILEVSDGIMIARGDLGMEIPSEKVFIAQKMMIYKCNIAGKPVITATQMLESMIVNPRPTRAEVTDVANAVLDGSDCVMLSGETANGAFSVECVRLMSHICLEAESCTDHMSVYLNLLKAIPTPVTTQEAIVRCSVGAIYSVNASCIIALTETGKTASLLAKYKPNQLIIAICNNENVAAGLALNRGVVPIMVDSFIDSDANINHAIEFAKKNNIVVEGSTVLAVHGMVSCAPGNTDMLKILNV
notes: recombinant, pGEX-6p-1, E. coli BL21, GST tag removed by 3C protease, 54 kDa
- Km [16]: 388 ± 87 µM
- Vmax [16]: 242 µmol/min/mg
- Km [17]: 655 ± 117 µM
- Vmax [17]: 250 µmol/min/mg
